In patent US20160175284A1, “ESTROGEN RECEPTOR MODULATORS AND USES THEREOF” (Genentech, Inc., priority 2014, published 2016):

These compounds were tested against T1, estrogen receptor alpha (ESR1) in MCF7 breast cancer cells (Homo sapiens, UniProt P03372) (assay: Breast Cancer Cell ERa High Content Fluorescence Imaging Assay (F10)). Settings: 4 hours, plateau of the maximal effect, DMSO and 5 nM Fulvestrant define 0% and 100% changes in ESR1.
T1 construct: endogenous in cells; host or cells: MCF7 breast cancer cells
T1 sequence (P03372 1-595): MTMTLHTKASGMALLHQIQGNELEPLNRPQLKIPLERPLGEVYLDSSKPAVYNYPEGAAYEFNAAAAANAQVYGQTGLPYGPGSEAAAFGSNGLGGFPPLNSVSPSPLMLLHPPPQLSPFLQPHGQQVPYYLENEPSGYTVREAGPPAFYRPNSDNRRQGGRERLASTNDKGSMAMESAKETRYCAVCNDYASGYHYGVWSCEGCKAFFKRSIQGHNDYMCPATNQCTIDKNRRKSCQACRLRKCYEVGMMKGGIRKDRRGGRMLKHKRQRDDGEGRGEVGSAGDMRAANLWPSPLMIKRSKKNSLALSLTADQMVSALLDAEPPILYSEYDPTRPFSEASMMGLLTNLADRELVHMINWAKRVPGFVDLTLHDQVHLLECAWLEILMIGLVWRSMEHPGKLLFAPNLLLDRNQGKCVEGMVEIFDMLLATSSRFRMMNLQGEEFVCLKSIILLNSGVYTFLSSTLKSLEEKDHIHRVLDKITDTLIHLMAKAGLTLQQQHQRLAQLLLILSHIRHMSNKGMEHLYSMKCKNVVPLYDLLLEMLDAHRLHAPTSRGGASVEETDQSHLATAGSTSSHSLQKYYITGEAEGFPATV
Type: cell-based
Procedure: Breast Cancer Cell ERa High Content Fluorescence Imaging Assay (F10)
Cell plates were incubated at 37° C., for 4 hours. Fixation and permeabilization were carried out using a Biotek EL406 plate washer and dispenser as follows. […] Samples were incubated 30 minutes. Well contents was aspirated and 50 ul/well of Phosphate Buffered Saline (PBS) containing 0.5% w/v bovine serum albumen, 0.5% v/v Triton X-100 (Antibody Dilution Buffer) was added to each well. Samples were incubated for 30 minutes. Well contents were aspirated and washed 3 times with 100 ul/well of PBS. Immunofluorescence staining of estrogen receptor alpha (ESR1) was carried out using a Biotek EL406 plate washer and dispenser as follows. […] Samples were incubated for 2 hours at room temperature. Samples were washed 4 times with 100 ul/well of PBS. […] Samples were incubated for 2 hours at room temperature. Samples were washed 3 times with 100 ul/well of PBS using a Biotek EL406. Quantitative fluorescence imaging of ESR1 was carried out using a Cellomics Arrayscan V (Thermo). […] Channel 1 (DNA stain) was used to define the nuclear region (Circ). […] Data analysis was carried out using Genedata Screener Software, with DMSO and 5 nM Fulvestrant treated samples being used to define the 0% and 100% changes in ESR1. The “Robust Fit” method was used to define the inflexion point of curve (EC50) and the plateau of the maximal effect (Sinf).

Structure (SMILES)	ER-alpha MCF7 HCS Sinf (%)
CC1=C(c2ccc(Cl)c(F)c2)C(c2ccc(OC[C@H](C)N3CC[C@@H](CF)C3)cc2)Oc2ccc(O)cc21 (stereo partly drawn) [Example 1, 3-(4-Chloro-3-fluorophenyl)-2-(4-((S)-2-((R)-3-(fluoromethyl)pyrrolidin-1-yl)propoxy)phenyl)-4-methyl-2H-chromen-6-ol]	−91%
CC1=C(c2ccc(Cl)c(F)c2)C(c2ccc(OCCN3CC[C@@H](CF)C3)cc2)Oc2ccc(O)cc21 (stereo partly drawn) [Example 2]	−95%
C#Cc1cc(O)cc(C2=C(C)c3cc(O)ccc3OC2c2ccc(OC[C@H](C)N3CC[C@@H](CF)C3)cc2)c1 (stereo partly drawn) [Example 3, 3-(3-Ethynyl-5-hydroxyphenyl)-2-(4-((S)-2-((R)-3-(fluoromethyl)pyrrolidin-1-yl)propoxy)phenyl)-4-methyl-2H-chromen-6-ol]	−94%
CC1=C(c2cccc(F)c2F)C(c2ccc(OCCN3CC(CF)C3)cc2)Oc2ccc(O)cc21 (stereo not drawn) [Example 4, 3-(2,3-Difluorophenyl)-2-(4-(2-(3-(fluoromethyl)azetidin-1-yl)ethoxy)phenyl)-4-methyl-2H-chromen-6-ol]	−98%
CC1=C(c2cccc(F)c2Cl)C(c2ccc(OCCN3CC(CF)C3)cc2)Oc2ccc(O)cc21 (stereo not drawn) [Example 5]	−98%
CC1=C(c2ccc(F)cc2C)C(c2ccc(OCCN3CC(CF)C3)cc2)Oc2ccc(O)cc21 (stereo not drawn) [Example 6, 3-(4-Fluoro-2-methylphenyl)-2-(4-(2-(3-(fluoromethyl)azetidin-1-yl)ethoxy)phenyl)-4-methyl-2H-chromen-6-ol]	−96%
CC1=C(c2cc(F)ccc2C)C(c2ccc(OCCN3CC(CF)C3)cc2)Oc2ccc(O)cc21 (stereo not drawn) [Example 7, 3-(5-Fluoro-2-methylphenyl)-2-(4-(2-(3-(fluoromethyl)azetidin-1-yl)ethoxy)phenyl)-4-methyl-2H-chromen-6-ol]	−99%
CC1=C(c2ccc(S(C)(=O)=O)cc2)C(c2ccc(OCCN3CC(CF)C3)cc2)Oc2ccc(O)cc21 (stereo not drawn) [Example 8, 2-(4-(2-(3-(fluoromethyl)azetidin-1-yl)ethoxy)phenyl)-4-methyl-3-(4-(methylsulfonyl)phenyl)-2H-chromen-6-ol]	−90%
CC1=C(c2cccc(S(C)(=O)=O)c2)C(c2ccc(OCCN3CC(CF)C3)cc2)Oc2ccc(O)cc21 (stereo not drawn) [Example 9, 2-(4-(2-(3-(Fluoromethyl)azetidin-1-yl)ethoxy)phenyl)-4-methyl-3-(3-(methylsulfonyl)phenyl)-2H-chromen-6-ol]	−99%
CC(=O)Nc1cccc(C2=C(C)c3cc(O)ccc3OC2c2ccc(OCCN3CC(CF)C3)cc2)c1 (stereo not drawn) [Example 10, N-(3-(2-(4-(2-(3-(Fluoromethyl)azetidin-1-yl)ethoxy)phenyl)-6-hydroxy-4-methyl-2H-chromen-3-yl)phenyl)acetamide]	−94%
CC(=O)Nc1ccc(C2=C(C)c3cc(O)ccc3OC2c2ccc(OCCN3CC(CF)C3)cc2)cc1 (stereo not drawn) [Example 11, N-(4-(2-(4-(2-(3-(Fluoromethyl)azetidin-1-yl)ethoxy)phenyl)-6-hydroxy-4-methyl-2H-chromen-3-yl)phenyl)acetamide]	−93%
CC1=C(c2cccc(NS(C)(=O)=O)c2)C(c2ccc(OCCN3CC(CF)C3)cc2)Oc2ccc(O)cc21 (stereo not drawn) [Example 12, N-(3-(2-(4-(2-(3-(Fluoromethyl)azetidin-1-yl)ethoxy)phenyl)-6-hydroxy-4-methyl-2H-chromen-3-yl)phenyl)methanesulfonamide]	−93%
CC1=C(c2ccc(NS(C)(=O)=O)cc2)C(c2ccc(OCCN3CC(CF)C3)cc2)Oc2ccc(O)cc21 (stereo not drawn) [Example 13, N-(4-(2-(4-(2-(3-(Fluoromethyl)azetidin-1-yl)ethoxy)phenyl)-6-hydroxy-4-methyl-2H-chromen-3-yl)phenyl)methanesulfonamide]	−68%
CC1=C(c2cccc(C(N)=O)c2)C(c2ccc(OCCN3CC(CF)C3)cc2)Oc2ccc(O)cc21 (stereo not drawn) [Example 14, 3-(2-(4-(2-(3-(Fluoromethyl)azetidin-1-yl)ethoxy)phenyl)-6-hydroxy-4-methyl-2H-chromen-3-yl)benzamide]	−97%
CC1=C(c2ccc(C(N)=O)cc2)C(c2ccc(OCCN3CC(CF)C3)cc2)Oc2ccc(O)cc21 (stereo not drawn) [Example 15, 4-(2-(4-(2-(3-(Fluoromethyl)azetidin-1-yl)ethoxy)phenyl)-6-hydroxy-4-methyl-2H-chromen-3-yl)benzamide]	−99%
CC1=C(c2ccc(CO)cc2)C(c2ccc(OCCN3CC(CF)C3)cc2)Oc2ccc(O)cc21 (stereo not drawn) [Example 16, 2-(4-(2-(3-(Fluoromethyl)azetidin-1-yl)ethoxy)phenyl)-3-(4-(hydroxymethyl)phenyl)-4-methyl-2H-chromen-6-ol]	−99%
CC1=C(c2cccc(CO)c2)C(c2ccc(OCCN3CC(CF)C3)cc2)Oc2ccc(O)cc21 (stereo not drawn) [Example 17, 2-(4-(2-(3-(Fluoromethyl)azetidin-1-yl)ethoxy)phenyl)-3-(3-(hydroxymethyl)phenyl)-4-methyl-2H-chromen-6-ol]	−101%
CC1=C(c2ccc(C#N)c(Cl)c2)C(c2ccc(OCCN3CC(CF)C3)cc2)Oc2ccc(O)cc21 (stereo not drawn) [Example 18, 2-Chloro-4-(2-(4-(2-(3-(fluoromethyl)azetidin-1-yl)ethoxy)phenyl)-6-hydroxy-4-methyl-2H-chromen-3-yl)benzonitrile]	−99%
CC1=C(c2cc(F)cc(F)c2)[C@@H](c2ccc(OCCN3CC(CF)C3)cc2)Oc2ccc(O)cc21 [Example 19, (R)- and (S)-3-(3,5-Difluorophenyl)-2-(4-(2-(3-(fluoromethyl)azetidin-1-yl)ethoxy)phenyl)-4-methyl-2H-chromen-6-ol]	−50%
CC1=C(c2cc(F)cc(F)c2)[C@H](c2ccc(OCCN3CC(CF)C3)cc2)Oc2ccc(O)cc21 [Example 20, (R)- and (S)-3-(3,5-Difluorophenyl)-2-(4-(2-(3-(fluoromethyl)azetidin-1-yl)ethoxy)phenyl)-4-methyl-2H-chromen-6-ol]	−103%
CC1=C(c2cccc(O)c2)C(c2ccc(OCCN3CC(CF)C3)cc2)Oc2cc(Cl)c(O)cc21 (stereo not drawn) [Example 26, 7-Chloro-2-(4-(2-(3-(fluoromethyl)azetidin-1-yl)ethoxy)phenyl)-3-(3-hydroxyphenyl)-4-methyl-2H-chromen-6-ol]	−93%
CC1=C(c2ccc(F)cc2)C(c2ccc(OCCN3CC(CF)C3)cc2)Oc2cc(C)c(O)cc21 (stereo not drawn) [Example 29, 2-{4-[2-(3-Fluoromethyl-azetidin-1-yl)-ethoxy]-phenyl}-3-(4-fluoro-phenyl)-4,7-dimethyl-2H-chromen-6-ol]	−90%
CC1=C(c2ccc(F)cc2)C(c2ccc(OCCN3CC(CF)C3)cc2)Oc2cc(C#N)c(O)cc21 (stereo not drawn) [Example 30, 2-{4-[2-(3-Fluoromethyl-azetidin-1-yl)-ethoxy]-phenyl}-3-(4-fluorophenyl)-6-hydroxy-4-methyl-2H-chromene-7-carbonitrile]	−92%
CC1=C(c2ccc(F)cc2Cl)C(c2ccc(OCCN3CC(CF)C3)cc2)Oc2ccc(O)cc21 (stereo not drawn) [Example 32, 3-(2-chloro-4-fluoro-phenyl)-2-[4-[2-[3-(fluoromethyl)azetidin-1-yl]ethoxy]phenyl]-4-methyl-2H-chromen-6-ol]	−99%
CC1=C(c2ccc(F)c(C#N)c2)C(c2ccc(OCCN3CC(CF)C3)cc2)Oc2ccc(O)cc21 (stereo not drawn) [Example 33, 2-fluoro-5-[2-[4-[2-[3-(fluoromethyl)azetidin-1-yl]ethoxy]phenyl]-6-hydroxy-4-methyl-2H-chromen-3-yl]benzonitrile]	−96%
CC1=C(c2ccc(F)c(C#N)c2)[C@@H](c2ccc(OCCN3CC(CF)C3)cc2)Oc2ccc(O)cc21 [Example 34, (R)-2-fluoro-5-(2-(4-(2-(3-(fluoromethyl)azetidin-1-yl)ethoxy)phenyl)-6-hydroxy-4-methyl-2H-chromen-3-yl)benzonitrile]	−88%
CC1=C(c2ccc(F)c(C#N)c2)[C@H](c2ccc(OCCN3CC(CF)C3)cc2)Oc2ccc(O)cc21 [Example 35, (S)-2-fluoro-5-(2-(4-(2-(3-(fluoromethyl)azetidin-1-yl)ethoxy)phenyl)-6-hydroxy-4-methyl-2H-chromen-3-yl)benzonitrile]	−97%
